In PubChem BioAssay AID330 (DTP/NCI, 2004):
Toxic doses and inconclusive results are not listed. The calls were made as follows: active = survival T/C of 150% or more; inactive = T/C below 125% in these data.

System: P388 leukemia ip, CD2F1 mice, survival T/C
Experiment: NCI In Vivo Anticancer Drug Screen. Data for tumor model P388 Leukemia (intraperitoneal) in CD2F1 (CDF1) mice
Conditions: endpoint: median survival time, higher = longer survival
How it was run: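 Mice carrying the transplanted tumor received test compound or vehicle. Survival was recorded in each group, and the value is the treated-group measurement divided by that of the vehicle-treated control group.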

[1] = dose: 50.0 mg/kg/injection, schedule: Q01DX009 (ip), vehicle: saline
[2] = dose: 100.0 mg/kg/injection, schedule: Q01DX009 (ip), vehicle: saline
[3] = dose: 200.0 mg/kg/injection, schedule: Q01DX009 (ip), vehicle: saline

Measured: T/C

O=C(Nc1ccc(C(=O)c2ccccc2)cc1)Nc1ccc(Cl)c(Cl)c1
inactive: dose: 15.0 mg/kg/injection, schedule: Q01DX005 (ip), vehicle: Klucel (hydroxypropylcellulose) (HPC) 93 % of control | dose: 30.0 mg/kg/injection, schedule: Q01DX005 (ip), vehicle: Klucel (hydroxypropylcellulose) (HPC) 96 % of control | dose: 60.0 mg/kg/injection, schedule: Q01DX005 (ip), vehicle: Klucel (hydroxypropylcellulose) (HPC) 89 % of control | dose: 240.0 mg/kg/injection, schedule: Q01DX005 (ip), vehicle: Klucel (hydroxypropylcellulose) (HPC) 86 % of control

Clc1ccc(SSN2CCCCC2)cc1
inactive: [1] 92 % of control | [2] 97 % of control | [3] 96 % of control

CC(=O)NC(Cc1cnc[nH]1)C(C)=O (stereo not drawn)
inactive: [1] 100 % of control | [2] 98 % of control | [3] 104 % of control

COc1cc2ccc(CC(=S)N3CCOCC3)cc2cc1OC
inactive: dose: 100.0 mg/kg/injection, schedule: Q01DX009 (ip), vehicle: saline with Tween-80 90 % of control | dose: 200.0 mg/kg/injection, schedule: Q01DX009 (ip), vehicle: saline with Tween-80 90 % of control

O=C(NCc1ccncc1)Nc1ccc(Cc2ccc(NC(=O)NCc3ccncc3)cc2)cc1
inactive: dose: 50.0 mg/kg/injection, schedule: Q01DX009 (ip), vehicle: Klucel (hydroxypropylcellulose) (HPC) 105 % of control | dose: 100.0 mg/kg/injection, schedule: Q01DX009 (ip), vehicle: Klucel (hydroxypropylcellulose) (HPC) 102 % of control | dose: 200.0 mg/kg/injection, schedule: Q01DX009 (ip), vehicle: Klucel (hydroxypropylcellulose) (HPC) 103 % of control

O=C(N1CCOCC1)C12OC3CC(CC(C3)O1)O2
inactive: dose: 60.0 mg/kg/injection, schedule: Q01DX005 (ip), vehicle: saline 102 % of control | dose: 120.0 mg/kg/injection, schedule: Q01DX005 (ip), vehicle: saline 104 % of control | dose: 240.0 mg/kg/injection, schedule: Q01DX005 (ip), vehicle: saline 105 % of control
